Calls of active or inactive are those of the source. The rule behind the calls is not given here.
Tests used:
Wolinella succinogenes [1] = test: Inhibition of Wolinella succinogenes quinol/fumarate reductase at 20 uM
Wolinella succinogenes [2] = test: Inhibition of Wolinella succinogenes succinate/quinone reductase at 20 uM
[3] = Inhibition of Wolinella succinogenes succinate/quinone reductase
[4] = target: T1, NAD(P)H dehydrogenase [quinone] 1 (Rattus norvegicus) (UniProt P05982); test: Inhibition of rat DT-diaphorase assessed as reduction of cytochrome c at 2 uM
T1 sequence (whole entry): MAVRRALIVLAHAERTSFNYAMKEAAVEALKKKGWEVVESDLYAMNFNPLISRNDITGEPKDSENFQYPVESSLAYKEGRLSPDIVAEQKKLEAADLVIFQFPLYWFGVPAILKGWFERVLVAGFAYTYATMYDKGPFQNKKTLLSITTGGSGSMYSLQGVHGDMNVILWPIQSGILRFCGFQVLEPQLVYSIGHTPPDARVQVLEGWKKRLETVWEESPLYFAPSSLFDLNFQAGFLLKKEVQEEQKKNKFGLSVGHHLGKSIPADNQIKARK

[5] = Inhibition of Wolinella succinogenes quinol/fumarate reductase

Compound	inhibition activity (active/not active) (Wolinella succinogenes [1])	inhibition call (active/not active) (Wolinella succinogenes [2])	IC50 [3] [nM]	inhibition [4]	IC50 [5] [nM]
CCCCCCCCCOC1=CC(=O)C(=O)c2ccccc21	inactive	inactive			
O=C1C(O)=C(CCCC2CCCCC2)C(=O)c2ccccc21	Active	Active			
O=C1C(O)=C(CCCCCCCCCCBr)C(=O)c2ccccc21	inactive	inactive			
CCCCCCCCCCCCCCC1=C(O)C(=O)c2ccccc2C1=O	Active	Active			
CCCCCCC1=C(Br)C(=O)c2ccccc2C1=O	Active	Active			
O=C1C(O)=C(CCCc2ccccc2)C(=O)c2ccccc21	Active	Active			
CCCCCCCCCCC1=C(O)C(=O)c2ccccc2C1=O	Active	Active			
CCCCCCCCCOC1=CC(=O)c2ccccc2C1=O	Active	Active			
O=C1C(O)=C(CCCCC2CCCCC2)C(=O)c2ccccc21	Active	Active			
CCCCCCCCCCC1=C(Br)C(=O)c2ccccc2C1=O	Active	Active			
O=C1C=C(O)C(=O)c2ccccc21	Active	Active			

Results, then the molecule that gave them:

inhibition activity (active/not active) (Wolinella succinogenes [1])	inhibition call (active/not active) (Wolinella succinogenes [2])	IC50 [3] [nM]	inhibition [4]	IC50 [5] [nM]	Compound
Active	Active	604	inactive	612	CCC1=C(Br)C(=O)c2ccccc2C1=O
Active	Active				CCCCCCC1=C(O)C(=O)c2ccccc2C1=O
Active	Active				CCCCCCCCCCC1=C(OC)C(=O)c2ccccc2C1=O
Active	Active				CC(C)(C)CC1=C(O)C(=O)c2ccccc2C1=O
Active	Active				CCC1=C(OC)C(=O)c2ccccc2C1=O
Active	Active	1090	inactive	61	CC1=C(Br)C(=O)c2ccccc2C1=O
Active	Active				CCCCCCC1=C(OC)C(=O)c2ccccc2C1=O
Active	Active				CCC1=C(O)C(=O)c2ccccc2C1=O
Active	Active				CC1=C(O)C(=O)c2ccccc2C1=O
inactive	inactive				CC(C)(O)CCC1=C(O)C(=O)c2ccccc2C1=O
